{"source": "patent US20230277560A1", "about": "“USE OF C[…] THE TREATMENT OF SEIZURES ASSOCIATED WITH CHRNA4 MUTATION” (GW Research Limited, priority 2020, published 2023)", "tested_on": "seizures associated with CHRNA4 mutation", "assay": "Open label, expanded-access program: seizure frequency in a patient with CHRNA4 mutation", "format": "in vivo, human", "conditions": "for Seizure frequency, Absence: baseline 0.0; for Seizure frequency, Absence / Seizure frequency, Tonic-clonic / Seizure frequency, Atonic / Seizure frequency, Myoclonic: concomitant rufinamide; for Seizure frequency, Tonic-clonic: baseline 0.4; for Seizure frequency, Atonic / Seizure frequency, Myoclonic: baseline 2800.0", "protocol": "The subject was required to be on one or more AEDs at stable doses for a minimum of two weeks prior to baseline and to have stable vagus nerve stimulation (VNS) settings and ketogenic diet ratios for a minimum of four weeks prior to baseline.\nThe patient was administered botanically derived purified CBD in a 100 mg/mL sesame oil-based solution. Dose was increased to a goal of 25 mg/kg/day.\nA maximum dose of 50 mg/kg/day could be utilised for the patient if they were tolerating the medication but had not achieved seizure control; the patient had further weekly titration by 5 mg/kg/day.\nThere was one patient in this study, and they received CBD for 24 weeks. Modifications were made to concomitant AEDs as per clinical indication.\nSeizure frequency, intensity, and duration were recorded by caregivers in a diary during a baseline period of at least 28 days. Changes in seizure frequency relative to baseline were calculated after at least 2 weeks and at defined timepoints of treatment.\nPatients may be defined as responders if they had more than 50% reduction in seizure frequency compared to baseline. The percent change in seizure frequency was calculated as follows: […]\nThe percent change of seizure frequency may be calculated for any time interval where seizure number has been recorded. For the purpose of this example the percent change of seizure frequency for the end of the treatment period was calculated as follows: […]", "key": {"[1]": {"conditions": "Patient 1, 4 weeks, CBD 15.0 mg/kg/day"}, "[2]": {"conditions": "Patient 1, 8 weeks, CBD 25.0 mg/kg/day"}, "[3]": {"conditions": "Patient 1, 12 weeks, CBD 25.0 mg/kg/day"}, "[4]": {"conditions": "Patient 1, 16 weeks, CBD 25.0 mg/kg/day"}, "[5]": {"conditions": "Patient 1, 24 weeks, CBD 23.8 mg/kg/day"}, "[6]": {"conditions": "Patient 1, treated for 24 weeks, relative to baseline"}}}
{"smiles": "C=C(C)[C@@H]1CCC(C)=C[C@H]1c1c(O)cc(CCCCC)cc1O", "note": "[CBD, cannabidiol]", "values": [{"measurement": "Seizure frequency, Absence", "setting": "[1]", "value": 0.0}, {"measurement": "Seizure frequency, Tonic-clonic", "setting": "[1]", "value": 1.0}, {"measurement": "Seizure frequency, Atonic", "setting": "[1]", "value": 2800.0}, {"measurement": "Seizure frequency, Myoclonic", "setting": "[1]", "value": 2800.0}, {"measurement": "Seizure frequency, Absence", "setting": "[2]", "value": 0.0}, {"measurement": "Seizure frequency, Tonic-clonic", "setting": "[2]", "value": 0.0}, {"measurement": "Seizure frequency, Atonic", "setting": "[2]", "value": 2800.0}, {"measurement": "Seizure frequency, Myoclonic", "setting": "[2]", "value": 2800.0}, {"measurement": "Seizure frequency, Absence", "setting": "[3]", "value": 0.0}, {"measurement": "Seizure frequency, Tonic-clonic", "setting": "[3]", "value": 1.0}, {"measurement": "Seizure frequency, Atonic", "setting": "[3]", "value": 2561.0}, {"measurement": "Seizure frequency, Myoclonic", "setting": "[3]", "value": 2560.0}, {"measurement": "Seizure frequency, Absence", "setting": "[4]", "value": 84.0}, {"measurement": "Seizure frequency, Tonic-clonic", "setting": "[4]", "value": 3.0}, {"measurement": "Seizure frequency, Atonic", "setting": "[4]", "value": 1260.0}, {"measurement": "Seizure frequency, Myoclonic", "setting": "[4]", "value": 840.0}, {"measurement": "frequency of atonic and myoclonic seizures (overall statement)", "setting": "Patient 1, 24 weeks treatment", "value": "effective in reducing the frequency"}, {"measurement": "Seizure frequency, Absence", "setting": "[5]", "value": 140.0}, {"measurement": "Seizure frequency, Tonic-clonic", "setting": "[5]", "value": 18.7}, {"measurement": "Seizure frequency, Atonic", "setting": "[5]", "value": 840.0}, {"measurement": "Seizure frequency, Myoclonic", "setting": "[5]", "value": 840.0}, {"measurement": "reduction in atonic seizures over the treatment period", "setting": "[6]", "value": 70, "unit": "%"}, {"measurement": "reduction in myoclonic seizures over the treatment period", "setting": "[6]", "value": 70, "unit": "%"}, {"measurement": "number of seizures associated with CHRNA4 mutation (conclusion)", "setting": "one patient, 24 weeks treatment", "value": "significantly reduce"}, {"measurement": "tonic-clonic, atonic, myoclonic and absence seizures (summary statement)", "setting": "open label, expanded-access program, patients with CHRNA4 mutation", "value": "significant reduction"}]}
